Data reported in patent publication US20230295152A1 (SENDA BIOSCIENCES, INC., priority 2019, published 2023).

Experiments:
[1] = In vivo PK study in male Sprague Dawley rats; conditions: for clearance / half-life / Vd / bioavailability / C0 / AUC(0-inf) / AUC(0-t) / Cmax / Tmax: male, Sprague Dawley, plasma; for Rat CL (% Qh) / clearance / half-life / Vd / bioavailability / C0 / AUC(0-inf) / AUC(0-t) / Cmax / Tmax: rat; for clearance: read-out: Rat CL; for Vd: read-out: Rat Vss; for AUC(0-inf): read-out: AUCInf Mean; for AUC(0-t): read-out: AUCLast Mean
Procedure: (§1) The studies were conducted in male Sprague Dawley rats, three rats per group, or male CD1 mice, three mice per group. Compounds were dosed 1.0 mg/Kg i.v. (vehicle ethanol: % PEG400 in deionized water, in proportions suitable for dosing a clear solution) and 3.0 mg/kg or 10 mg/kg p.o. (vehicle: 1% methyl cellulose: 1,500 cP in DI water (w/v)). A11 animals had free access to food and water. Rat i.v. PK time points: Plasma: 0.083, 0.25, 0.5, 1, 2, 4, 8 and 24 h; Rat p.o. PK time points: Plasma: 0.25, 0.5, 1, 2, 4, 8 and 24 h. Mouse i.v. PK time points: Plasma: 0.083, 0.25, 0.5, 1, 2, 4, 8, 24, and 48 h; Mouse p.o. PK time points: Plasma: 0.25, 0.5, 1, 2, 4, 8, 24, and 48 h. Concentrations of compound in the plasma samples were analyzed using a LC-MS/MS method. WinNonlin (Phoenix™, version 6.1) or other similar software was used for pharmacokinetic calculations.

[2] = In vivo PK study in male CD1 mice; conditions: for AUC(0-t): read-out: AUCLast Mean; for clearance: read-out: Mouse CL; for Vd: read-out: Mouse Vss
Procedure: as §1

[3] = system: CT26 cells implanted subcutaneously into Balb/c mice; experiment: CT26 syngeneic colon cancer model, AhR antagonist with PD-L1 antibody; assay type: in vivo; conditions: for Cmin: CT26 model, dose 10 mg/kg
[4] = as above; assay type: in vivo; conditions: female, Balb/c, mouse, in vivo, po; CT26 model, dose 10 mg/kg
[5] = system: CYP1A1 mRNA levels in HT26; experiment: CYP1A1 Gene Expression Assay, mouse CRC cell line HT26; assay type: cell-based; conditions: for IC50: Mus musculus; for Mouse CYP1A1 % eff: efficacy given with the IC50
Procedure: Human and mouse colorectal cancer (CRC) cell lines, HT29 and HT26 respectively, American Type Culture Collection (ATCC) are plated in a sterile tissue culture treated 96-well plate (ThermoFisher) at 8.0×10^5 cells per well, and grown overnight at 37° C., 5% CO2 in DMEM complete (Gibco) in order to achieve confluence. After the incubation medium is aspirated off the cell monolayers, tissues are then washed with 200 μL of warmed PBS solution, and subsequently 190 μL of pre-warmed growth medium is added to each well. AhR antagonist of interest are diluted at a 20×concentration in growth medium containing 2% DMSO, and 10 μL of compound solutions are added to respective wells in triplicate. After 1 hr, AHR activating ligand, such as TCDD, kynurenine, ITE (2-(1H-indole-3-ylcarbonyl)-4-thiazolecarboxylic methyl ester), VAF347, BNF (beta-naphthoflavone), FICZ (6-formylindolo(3,2-b) carbazole or other AHR ligands, is added with or without AHR antagonist for 24 hours, after which media will be removed and stored at −80 C for later cytokine analysis. At the end of the incubation, medium is aspirated off the CRC cells, and the cells washed with 100 μL of cold PBS solution. RNA is extracted via the TaqMan™ Gene Expression Cells-to-CT™ Kit (ThermoFisher) according to the manufacturer's protocol. The QuantStudio 6 Flex (Applied Biosciences) is used to analyze mRNA levels of CYP1A1 using GAPDH as the endogenous control. TaqMan™ probe sets for both genes are acquired from ThermoFisher. Samples are run in triplicate and data is analyzed using the QuantStudio software and reported as linear and log 2(ΔΔCT) values. Statistical analysis is performed using a two-tailed t-test comparing CYP1A1 levels in the presence of each individual compound to the vehicle negative control. […] This assay can be used to confirm the inhibitory effect of the compounds prior to testing using an in vivo model.

[6] = intravenous, 1 mg/kg, in vivo DMPK profile
[7] = intravenous, 1 mg/kg, in vivo DMPK profile, read-out: Rat T1/2 (converted)
[8] = oral, 3 mg/kg, in vivo DMPK profile, read-out: Rat % F
[9] = male, CD1, mouse, plasma, mice, 1 mg/kg IV
[10] = male, CD1, mouse, plasma, mice, 1 mg/kg IV, read-out: T1/2 Mean (converted)
[11] = male, CD1, mouse, plasma, mice, 10 mg/kg PO
[12] = male, CD1, mouse, plasma, mice, 10 mg/kg PO, read-out: Bioavailability
[13] = male, CD1, plasma, intravenous, 1 mg/kg, in vivo DMPK profile, mouse
[14] = male, CD1, plasma, intravenous, 1 mg/kg, in vivo DMPK profile, mouse, read-out: Mouse T1/2 (converted)
[15] = male, CD1, plasma, oral, 10 mg/kg, in vivo DMPK profile, mouse, read-out: Mouse % F
[16] = rats, 1 mg/kg IV, read-out: T1/2 Mean (converted)
[17] = rats, PO, dosage of 3 mg/kg, read-out: Bioavailability

Row | Structure (SMILES) | Rat CL (% Qh) ([1]; in vivo DMPK profile) | clearance [1, 6] [mL/min/kg] | half-life [1, 7] [h] | Vd [1, 6] [L/kg] | bioavailability [1, 8] [%] | Mouse CL (% Qh) ([2]; in vivo DMPK profile, mouse) | AUC(0-t) [2, 9] [ng·h/mL] | half-life [2, 10] [h] | Cmax [2, 11] [ng/mL] | Tmax [2, 11] [h] | bioavailability [2, 12] [%] | clearance [2, 13] [mL/min/kg] | half-life [2, 14] [h] | Vd [2, 13] [L/kg] | bioavailability [2, 15] [%] | CI Mean ([2]; mice, 1 mg/kg IV) [mL/min/kg] | Cmin [3] | Cmax [4] [µM] | IC50 [5] [nM] | Mouse CYP1A1 % eff [5] [%] | other results
1 | CC(C)(O)Cn1cnc2c(-c3cccnc3)nc(-c3ccc(C(F)(F)F)nc3)cc2c1=O [Compound 9] | 5.8 | 4.1 | 5.4 | 1.75 | 77 | 3.85 | 4880 | 5.37 | 1470 | 5.67 | 70.3 | 3.4 | 5.4 | 1.9 | 70.3 | 57 | 849 nm | 4.96 | 2.7 | ~55 | AUC(0-inf) ([2]; male, CD1, mouse, plasma, mice, 10 mg/kg PO, read-out: AUCInf Mean): 34200 ng·h/mL; tumor volume and weight, combination with PD-L1 compared to PD-L1 alone (overall) ([3]; 10 mg/kg or 1 mg/kg p.o. once a day over 14 days with anti-PD-L1 antibody 10 mg/kg IP every 3 days): decreases tumor volume and weight compared to PD-L1 alone; tumor volume, coadministration with PD-L1 antibody ([3]; FIG. 8, 10 mg/kg p.o. once a day over 14 days with anti-PD-L1 antibody 10 mg/kg IP every 3 days, p=0.0070 (Mann-Whitney)): reduction in tumor volume; tumor weight upon termination of study, coadministration with PD-L1 antibody ([3]; FIG. 9, p.o. once a day over 14 days with anti-PD-L1 antibody 10 mg/kg IP every 3 days, p=0.0114 (Mann-Whitney)): reduction in tumor weight; tumor volume, coadministration with PD-L1 antibody ([3]; FIG. 10, 1 mg/kg p.o. once a day over 14 days with anti-PD-L1 antibody 10 mg/kg IP every 3 days, p=0.0039 (Kruskal Wallis, Dunn's)): reduction in tumor volume; tumor weight upon termination of study, coadministration with PD-L1 antibody ([3]; FIG. 11, p.o. once a day over 14 days with anti-PD-L1 antibody 10 mg/kg IP every 3 days, p=0.0029 (Kruskal Wallis, Dunn's)): reduction in tumor weight
2 | C[C@H](n1cnc2c(-c3cnn(C)c3)nc(-c3ccc(Cl)cc3)cc2c1=O)C(C)(C)O [Compound 30] |  |  |  |  |  |  | 6380 | 8.6 | 2160 | 8 | 114 |  |  |  |  | 43.3 | 1,725 nm | 5.88 | 2.9 | ~56 | C0 ([1]; rats, 1 mg/kg IV): 311 ng/mL; AUC(0-inf) ([1]; rats, 1 mg/kg IV): 2030 ng·h/mL; AUC(0-t) ([1]; rats, 1 mg/kg IV): 2010 ng·h/mL; half-life [1, 16]: 3.62 h; Cmax ([1]; rats, PO, dosage of 3 mg/kg): 276 ng/mL; Tmax ([1]; rats, PO, dosage of 3 mg/kg): 3.33 h; AUC(0-t) ([1]; rats, PO, dosage of 3 mg/kg): 3250 ng·h/mL; bioavailability [1, 17]: 53.9%; CI Mean ([1]; rats, 1 mg/kg IV): 143 mL/min/kg; C0 [2, 9]: 457 ng/mL; AUC(0-t) [2, 11]: 72800 ng·h/mL; tumor volume, coadministration with PD-L1 antibody ([3]; FIG. 4, 10 mg/kg p.o. once a day over 14 days with anti-PD-L1 antibody 10 mg/kg IP every 3 days, p=0.039 (Mann-Whitney)): reduction in tumor volume; tumor weight upon termination of study, coadministration with PD-L1 antibody ([3]; FIG. 5, 10 mg/kg p.o. once a day over 14 days with anti-PD-L1 antibody 10 mg/kg IP every 3 days, p=0.067 (Mann-Whitney)): reduction in tumor weight; tumor volume, coadministration with PD-L1 antibody ([3]; FIG. 6, 10 mg/kg p.o. once a day over 14 days with anti-PD-L1 antibody 10 mg/kg IP every 3 days, p=0.350 (Kruskal Wallis, Dunn's)): reduction in tumor volume; tumor weight upon termination of study, coadministration with PD-L1 antibody ([3]; FIG. 7, 10 mg/kg p.o. once a day over 14 days with anti-PD-L1 antibody 10 mg/kg IP every 3 days, p=0.0004 (Kruskal Wallis, Dunn's)): reduction in tumor weight
3 | C[C@@H](CO)n1cnc2c(-c3cccnc3)nc(-c3ccc(C(F)(F)F)cn3)cc2c1=O [Compound 46, (S)-3-(1-hydroxypropan-2-yl)-8-(pyridin-3-yl)-6-(5-(trifluoromethyl)pyridin-2-yl)pyrido[3,4-d]pyrimidin-4(3H)-one] | 9 | 6.7 | 5.6 | 3.1 | 89 | 2 | 8400 | 15.7 | 2370 |  | 80.6 | 1.8 | 15.7 | 2.3 | 80.6 | 29.3 | 12,350 nm | 17.3 | 18.5 | ~96 | C0 ([1]; rats, 1 mg/kg IV): 301 ng/mL; AUC(0-inf) ([1]; rats, 1 mg/kg IV): 2490 ng·h/mL; AUC(0-t) ([1]; rats, 1 mg/kg IV): 2350 ng·h/mL; half-life [1, 16]: 5.65 h; Cmax ([1]; rats, PO, dosage of 3 mg/kg): 462 ng/mL; Tmax ([1]; rats, PO, dosage of 3 mg/kg): 3.33 h; AUC(0-t) ([1]; rats, PO, dosage of 3 mg/kg): 6280 ng·h/mL; bioavailability [1, 17]: 89%; half-life ([1]; rats, PO, dosage of 3 mg/kg, read-out: T1/2 Mean (converted)): 5.73 h; CI Mean ([1]; rats, 1 mg/kg IV): 112 mL/min/kg; C0 [2, 9]: 470 ng/mL; AUC(0-t) [2, 11]: 67700 ng·h/mL; half-life ([2]; male, CD1, mouse, plasma, mice, 10 mg/kg PO, read-out: T1/2 Mean (converted)): 8 h; tumor volume, coadministration with PD-L1 antibody ([3]; FIG. 12, 10 mg/kg p.o. once a day over 14 days with anti-PD-L1 antibody 10 mg/kg IP every 3 days): reduction in tumor volume; tumor weight upon termination of study, coadministration with PD-L1 antibody ([3]; FIG. 13, 10 mg/kg p.o. once a day over 14 days with anti-PD-L1 antibody 10 mg/kg IP every 3 days): reduction in tumor weight
